US9579407B2, “Radiolabeled compounds and their use as radiotracers for quantitative imaging of phosphodiesterase (PDE10A) in mammals” (TAKEDA PHARMACEUTICAL COMPANY LIMITED, priority 2011, dated 2017)
Each block holds one compound with its values, some of them ahead of it.

How the values were obtained:
[1] = tested on: Human PDE1A, 2A3, 3A, 4D2, 5A1, 6AB, 7B, 8A1, 9A2, and 11A4 enzymes; experiment: PDE family enzyme inhibition selectivity assay (SPA); format: biochemical; details: ratio of IC50 for each PDE other than PDE10A to IC50 for PDE10A
Procedure: The PDE10A IC50 is a measure of the ability of the test compound to inhibit the action of the PDE10A enzyme. To determine the selectivity of the test compounds for PDE10A, the IC50 of the compound was determined for PDEs 1-9, and 11.
Human PDE1A, 3A, 4D2, 5A1, 7B, 8A1, 9A2, and 11A4 enzymes were purchased from BPS Bioscience. Human PDE6AB enzyme was purchased from Scottish Biomedical. Human PDE2A3 was generated from Sf9 transfected with the full-length gene in house. PDE activities were measured using a SPA (Scintillation Proximity Assay) (PerkinElmer). To evaluate the inhibitory activity, 10 μL of serial diluted compounds were incubated with 20 μL of PDE enzyme in assay buffer (50 mM HEPES-NaOH, 8.3 mM MgCl2, 1.7 mM EGTA, 0.1% BSA (pH 7.4)) for 30 min. at room temperature. Final concentration of DMSO in the assay was 1% as compounds were tested in duplicate in 96-well half-area plates (Corning). To start the reaction, 10 μL of substrate [^3H] cGMP (PerkinElmer) for PDE1A, 2A3, 5A1, 6AB, 9A2, and 11A4 or [^3H] cAMP (PerkinElmer) for PDE3A, 4D2, 7B, and 8A1 was added for a final assay volume of 40 μL. After 60 min incubation at room temperature, yttrium SPA beads containing zinc sulphate were added (20 μL at 6 mg/mL) to terminate the PDE reaction. After being settled for 60 min., assay plates were counted in a scintillation counter (PerkinElmer) to allow calculation of inhibition rate. IC50 values were calculated on the basis of 0% control wells with DMSO and 100% control wells without enzyme. Selectivity was defined as the ratio of IC50 for each PDE other than PDE10A to IC50 for PDE10A.

[2] = biological target: Human PDE10A enzyme (Homo sapiens (Human), UniProt Q9Y233); experiment: PDE10A enzyme inhibition (SPA, [3H]cGMP); format: biochemical; details: unlabeled compound
Sequence of Human PDE10A enzyme (Q9Y233 267-1055): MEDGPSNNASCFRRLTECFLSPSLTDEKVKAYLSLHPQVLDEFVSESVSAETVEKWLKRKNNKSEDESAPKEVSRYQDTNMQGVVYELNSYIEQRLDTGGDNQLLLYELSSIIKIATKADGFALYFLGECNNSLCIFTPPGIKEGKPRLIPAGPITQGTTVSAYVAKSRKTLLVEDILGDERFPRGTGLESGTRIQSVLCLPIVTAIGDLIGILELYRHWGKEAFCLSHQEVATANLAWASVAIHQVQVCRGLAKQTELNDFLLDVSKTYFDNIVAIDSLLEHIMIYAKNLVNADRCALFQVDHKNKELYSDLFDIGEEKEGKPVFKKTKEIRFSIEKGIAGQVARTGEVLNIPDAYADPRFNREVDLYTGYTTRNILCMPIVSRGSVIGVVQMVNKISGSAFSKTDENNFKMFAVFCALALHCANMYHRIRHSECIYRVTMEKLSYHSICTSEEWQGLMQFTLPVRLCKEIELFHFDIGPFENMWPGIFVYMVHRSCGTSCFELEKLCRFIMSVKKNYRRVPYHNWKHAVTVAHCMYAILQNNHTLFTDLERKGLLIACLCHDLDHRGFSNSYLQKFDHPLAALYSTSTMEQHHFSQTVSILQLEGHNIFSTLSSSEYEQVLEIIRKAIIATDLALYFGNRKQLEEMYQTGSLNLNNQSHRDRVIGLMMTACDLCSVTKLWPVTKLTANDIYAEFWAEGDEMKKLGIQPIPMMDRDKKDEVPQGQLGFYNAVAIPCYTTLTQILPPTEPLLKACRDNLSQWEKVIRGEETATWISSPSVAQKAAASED
Procedure: Many of the compounds within the present invention had activity in inhibiting the human PDE10A enzyme in the aforementioned assay, generally with an […] of less than about 0.1 μM. Such a result is indicative of the intrinsic activity of the compounds in use as inhibitors of the PDE10A enzyme.
Human PDE10A enzyme was generated from Sf9 or COS-7 cells transfected with the full-length gene. Cloned enzyme was extracted from homogenized cell pellets. The extracted enzyme from sf9 cells was partially purified using His-tag affinity column. The enzyme was stored at −70° C. until use. PDE activity was measured using a SPA (Scintillation Proximity Assay) (GE Healthcare). To evaluate the inhibitory activity, 10 μL of serial diluted compounds were incubated with 20 μL of PDE enzyme in assay buffer (50 mM HEPES-NaOH, 8.3 mM MgCl2, 1.7 mM EGTA, 0.1% BSA (pH 7.4)) for 30 min. at room temperature. Final concentration of DMSO in the assay was 1% as compounds were tested in duplicate in 96-well half-area plates (Corning). To start the reaction, 10 μL of substrate [^3H] cGMP (25 or 50 nM; enclosed in SPA kits from GE Healthcare or purchased from PerkinElmer, respectively) was added for a final assay volume of 40 μL. After 60 min incubation at room temperature, yttrium SPA beads containing zinc sulphate were added (20 μL at 6 mg/mL) to terminate the PDE reaction. After being settled for 60 min., assay plates were counted in a scintillation counter (PerkinElmer) to allow calculation of inhibition rate. IC50 values were calculated on the basis of 0% control wells with DMSO and 100% control wells without enzyme.

[3] = Plasma metabolite analysis (parent fraction) during PET, [11C]compound; format: in vivo, rhesus monkeys; details: venous plasma, i.v.
Procedure: (§1) PET measurements were performed with the High Resolution Research Tomograph system (HRRT) (Siemens Molecular Imaging) using two rhesus monkeys with body weight of 4450 g and 5000 g. The monkeys were maintained under gas anesthesia of sevoflurane, oxygen, and medical air during PET measurements. 123-min dynamic brain PET data were acquired in List mode after 150 and 162 MBq of [^11C] compound of Example 2 and 159 and 162 MBq of [^11C] compound of Example 3 were injected intravenously. List-mode data were reconstructed using the ordinary Poisson-3D-ordered subset expectation maximization (OP-3D-OSEM) algorithm, with 10 iterations and 16 subsets including modelling of the point spread function (PSF). During PET acquisition, venous blood sampling was performed for the metabolite analysis.
(§2) Regions of interest (ROIs) for Caudate, Putamen, Nucleus Accumbens, Thalamus, Cerebellum, Frontal cortex, Temporal cortex, and whole brain were delineated on MRI/PET coregistered images using PMOD software (v3.1 PMOD Technologies Ltd. Zurich, Switzerland). Time activity curves were generated for these regions. The uptake was expressed as % ID (=total radioactivity in the brain (MBq)*100/injected radioactivity (MBq)) or % SUV (=radioactivity in the region (MBq/cc)*100/(injected radioactivity (MBq)/Body weight (g))). Metabolite fraction in the plasma was measured by a radio LC analysis. The results are shown in FIGS. 3, 4, 5, 6, 7, 8, 9 and 10.

[4] = PET brain uptake (whole brain and regional), [11C]compound; format: in vivo, rhesus monkeys; details: for regional brain uptake: regions of interest on MRI/PET coregistered images; for time at which whole brain uptake decreased to half / time at which whole brain uptake reached peak / whole brain uptake at the peak: i.v.; for time at which whole brain uptake reached peak: 123-min PET; for whole brain uptake at the peak: % ID = total radioactivity in the brain*100/injected radioactivity
Procedure: as §1
(§3) T1-weighted MR images were acquired with an MRI system GE 1.5 T Signa unit (Milwaukee, Wis., USA). The T1 sequence was a 3-D SPGR protocol with the following settings: repetition time (TR) 21 ms, flip angle 35°, FOV 12.8, matrix 256×256×128, 128×1.0 mm slices.
as §2

[5] = tested on: PDE10A; experiment: PET specific radioligand binding in putamen (PDE10A rich region) vs cerebellum, [11C]compound; format: in vivo, rhesus monkeys; details: for ratio of the specific binding between the uptake in the target region and the uptake in the cerebellum: increased up to, during 123 min PET measurements; for time of peak of specific binding in Putamen: uptake of the putamen minus the cerebellum
Procedure: (§4) Since the compounds of the present invention show efficacy exhibition, they are useful as PET radioligands of PDE10A.
as §1, §2

[6] = tested on: PDE10A; experiment: PET specific radioligand binding in putamen (PDE10A rich region) vs cerebellum, [18F]compound; format: in vivo, cynomolgus monkeys; details: for ratio of the specific binding between the uptake in the target region and the uptake in the cerebellum: increased up to; for time of peak of specific binding in Putamen: uptake of the putamen minus the cerebellum
Procedure: as §4
(§5) PET measurements were performed with the High Resolution Research Tomograph system (HRRT) (Siemens Molecular Imaging) using three cynomolgus monkeys with body weight of 3730 g to 4845 g. The monkeys were maintained under gas anesthesia of sevoflurane, oxygen, and medical air during PET measurements.
(§6) 180-min dynamic brain PET data were acquired in List mode after 148 and 157 MBq of [^18F]compound of Example 119 and 159 and 163 MBq of [^18F]compound of Example 120 were injected intravenously. List-mode data were reconstructed using the ordinary Poisson-3D-ordered subset expectation maximization (OP-3D-OSEM) algorithm, with 10 iterations and 16 subsets including modelling of the point spread function (PSF). During PET acquisition, venous blood sampling was performed for the metabolite analysis.
as §2, with “(v3.2PMOD” for “(v3.1 PMOD”, “13, 14, 15, 16, 17, 18, 19” for “3, 4, 5, 6, 7, 8, 9”, “20.” for “10.”

[7] = Plasma metabolite analysis (parent fraction) during PET, [18F]compound; format: in vivo, cynomolgus monkeys; details: venous plasma, i.v.
Procedure: as §5, §6
as §2, with “(v3.2PMOD” for “(v3.1 PMOD”, “13, 14, 15, 16, 17, 18, 19” for “3, 4, 5, 6, 7, 8, 9”, “20.” for “10.”

[8] = PET brain uptake (whole brain and regional), [18F]compound; format: in vivo, cynomolgus monkeys; details: for regional brain uptake: regions of interest on MRI/PET coregistered images; for time at which whole brain uptake decreased to half / time at which whole brain uptake reached peak / whole brain uptake at the peak: i.v.; for time at which whole brain uptake reached peak: 180-min PET; for whole brain uptake at the peak: % ID = total radioactivity in the brain*100/injected radioactivity
Procedure: as §5, §6, §3
as §2, with “(v3.2PMOD” for “(v3.1 PMOD”, “13, 14, 15, 16, 17, 18, 19” for “3, 4, 5, 6, 7, 8, 9”, “20.” for “10.”

SMILES: [11CH3]Oc1cn(-c2ccc(N3CC(F)(F)C3)cc2F)nc(-c2ccnn2-c2ccccc2)c1=O [Example 2]
- fraction of parent compound ([3]; at 30 min): 70-76%
- fraction of parent compound ([3]; at 90 min): 52-58%
- regional brain uptake [4]: Putamen showed highest uptake, followed by Caudate, Nuclear Accumbens and Thalamus
- time at which whole brain uptake decreased to half [4]: 60 to 66 min
- time at which whole brain uptake reached peak [4]: 2.5 to 7.5 min
- whole brain uptake at the peak [4]: 3.3-5.1 % ID
- ratio of the specific binding between the uptake in the target region and the uptake in the cerebellum [5]: 2.5-2.7
- time of peak of specific binding in Putamen [5]: 48 min

SMILES: [2H]C([2H])(F)Oc1cn(-c2ccc(C3CCOCC3)cc2F)nc(-c2ccnn2-c2ccccc2)c1=O [Example 119, 5-([^18F]fluoro-methyloxy-d2)-1-(2-fluoro-4-(tetrahydro-2H-pyran-4-yl)phenyl)-3-(1-phenyl-1H-pyrazol-5-yl)pyridazin-4(1H)-one]
- ratio of the specific binding between the uptake in the target region and the uptake in the cerebellum ([6]; during 47-65 min PET measurements): 3.0-3.9
- time of peak of specific binding in Putamen [6]: 18.5 to 29 min
- fraction of parent compound ([7]; at 60 min): 62-71%
- fraction of parent compound ([7]; at 180 min): 60-63%
- regional brain uptake [8]: Putamen showed highest uptake, followed by Caudate, Nuclear Accumbens and Thalamus
- time at which whole brain uptake decreased to half [8]: 23 min
- time at which whole brain uptake reached peak [8]: 2.5 min
- whole brain uptake at the peak [8]: 5.2-5.7 % ID

SMILES: [2H]C([2H])(F)C([2H])([2H])Oc1cn(-c2ccc(C3CCOCC3)cc2F)nc(-c2ccnn2-c2ccccc2)c1=O [Example 120, 5-(2-[^18F]fluoro-ethyloxy-d4)-1-(2-fluoro-4-(tetrahydro-2H-pyran-4-yl)phenyl)-3-(1-phenyl-1H-pyrazol-5-yl)pyridazin-4(1H)-one]
- ratio of the specific binding between the uptake in the target region and the uptake in the cerebellum ([6]; during 65-75 min PET measurements): 1.5-1.9
- time of peak of specific binding in Putamen [6]: 35 to 41 min
- fraction of parent compound ([7]; at 60 min): 64-74%
- fraction of parent compound ([7]; at 180 min): 51-72%
- regional brain uptake [8]: Putamen showed highest uptake, followed by Caudate, Nuclear Accumbens and Thalamus
- time at which whole brain uptake decreased to half [8]: 23 to 35 min
- time at which whole brain uptake reached peak [8]: 2.5 to 4.5 min
- whole brain uptake at the peak [8]: 3.6 % ID

SMILES: [11CH3]Oc1cn(-c2ccc(C3CCOCC3)cc2F)nc(-c2ccnn2-c2ccccc2)c1=O [Example 3, 1-[2-Fluoro-4-(tetrahydro-2H-pyran-4-yl)phenyl]-5-[^11C]methoxy-3-(1-phenyl-1H-pyrazol-5-yl)pyridazin-4(1H)-one]
- fraction of parent compound ([3]; at 30 min): 56-57%
- fraction of parent compound ([3]; at 90 min): 45-53%
- regional brain uptake [4]: Putamen showed highest uptake, followed by Caudate, Nuclear Accumbens and Thalamus
- time at which whole brain uptake decreased to half [4]: 30 min
- time at which whole brain uptake reached peak [4]: 2 min
- whole brain uptake at the peak [4]: 3.3-4.1 % ID
- ratio of the specific binding between the uptake in the target region and the uptake in the cerebellum [5]: approximately six
- time of peak of specific binding in Putamen [5]: 42 min

The next lines start with the values.

- Selectivity over other PDEs [1]: >1000-fold
- IC50 [2]: < 1 nM
SMILES: COc1cn(-c2ccc(C3CCOCC3)cc2F)nc(-c2ccnn2-c2ccccc2)c1=O [Reference Example 16, 1-[2-Fluoro-4-(tetrahydro-2H-pyran-4-yl)phenyl]-5-methoxy-3-(1-phenyl-1H-pyrazol-5-yl)pyridazin-4(1H)-one]

- Selectivity over other PDEs [1]: >100-fold
- IC50 [2]: < 10 nM
SMILES: [2H]C([2H])(F)C([2H])([2H])Oc1cn(-c2ccc(C3CCOCC3)cc2F)nc(-c2ccnn2-c2ccccc2)c1=O [Reference Example 123, 5-(2-Fluoroethoxy-d4)-1-{2-fluoro-4-(tetrahydro-2H-pyran-4-yl)phenyl}-3-(1-phenyl-1H-pyrazol-5-yl)pyridazin-4(1H)-one]

- Selectivity over other PDEs [1]: >1000-fold
- IC50 [2]: < 1 nM
SMILES: COc1cn(-c2ccc(N3CC(F)(F)C3)cc2F)nc(-c2ccnn2-c2ccccc2)c1=O [Reference Example 18, 1-[4-(3,3-Difluoroazetidin-1-yl)-2-fluorophenyl]-5-methoxy-3-(1-phenyl-1H-pyrazol-5-yl)pyridazin-4(1H)-one]

- Selectivity over other PDEs [1]: >1000-fold
- IC50 [2]: < 10 nM
SMILES: [2H]C([2H])(F)Oc1cn(-c2ccc(C3CCOCC3)cc2F)nc(-c2ccnn2-c2ccccc2)c1=O [Reference Example 122, 5-(Fluoromethoxy-d2)-1-{2-fluoro-4-(tetrahydro-2H-pyran-4-yl)phenyl}-3-(1-phenyl-1H-pyrazol-5-yl)pyridazin-4(1H)-one]
